Test results published in ChEMBL document CHEMBL5385865, “Discovery and optimization of 2-(trifluoromethyl)benzimidazole derivatives as novel ferroptosis inducers in vitro and in vivo” (Eur J Med Chem, 2023).
The source made the active and inactive calls. The calls are words filed in the database; no cut-off is given here.

Experiments:
[1] = tested on: HT-1080; assay: Induction of ferroptosis in human HT-1080 cells assessed as increase in lipid ROS accumulation at 5 uM incubated for 10 hrs in presence of Fer-1 by BODIPY-C11 probe based confocal laser scanning microscopy; assay type: functional, cell-based
[2] = target: T1, Cystine/glutamate transporter (Homo sapiens) (UniProt Q9UPY5); assay: Inhibition of Xc- in human HT-1080 cells assessed as decrease in glutamate release incubated for 3 hrs by Amplex red assay; assay type: cell-based; conditions: dose 0.5-5 µM
T1 sequence (whole entry): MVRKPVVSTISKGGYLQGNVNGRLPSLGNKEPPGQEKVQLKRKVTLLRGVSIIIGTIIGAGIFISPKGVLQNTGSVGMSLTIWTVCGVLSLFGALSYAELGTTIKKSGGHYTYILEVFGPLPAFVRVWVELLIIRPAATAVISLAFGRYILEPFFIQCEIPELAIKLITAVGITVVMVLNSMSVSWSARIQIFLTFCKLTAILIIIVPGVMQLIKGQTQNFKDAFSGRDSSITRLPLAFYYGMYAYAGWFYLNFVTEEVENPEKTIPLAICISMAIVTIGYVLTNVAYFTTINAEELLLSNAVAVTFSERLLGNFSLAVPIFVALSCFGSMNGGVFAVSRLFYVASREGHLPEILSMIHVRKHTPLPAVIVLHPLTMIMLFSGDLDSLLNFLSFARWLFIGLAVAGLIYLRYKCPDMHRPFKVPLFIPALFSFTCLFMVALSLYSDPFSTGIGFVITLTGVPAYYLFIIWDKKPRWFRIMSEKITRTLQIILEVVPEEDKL

[3] = tested on: HeLa; assay: Lethality in human HeLa cells assessed as decrease in cell viability at 10 uM incubated for 48 hrs in presence of DFO by MTT assay; assay type: functional, cell-based
[4] = Toxicity in human L02 cells upto 20 uM incubated for 48 hrs by MTT assay; assay type: cell-based; conditions: l02, 48 h
[5] = tested on: HepG2; assay: Antitumor activity against human HepG2 cells xenografted in BALB/c nude mouse assessed as tumor growth inhibition at 15 mg/kg, ip administered every other day for 21 days by electronic caliper analysis relative to control; assay type: functional; conditions: HepG2, 504 h, time 21 day, read-out: TGI
[6] = Toxicity in BALB/c nude mouse xenografted with human HepG2 cells assessed as effect on serum UREA level at 15 to 30 mg/kg, ip administered every other day for 21 days; assay type: organism-based; conditions: in vivo, 504 h, dose 15-30 mg/kg, time 21 day
[7] = Toxicity in BALB/c nude mouse xenografted with human HepG2 cells assessed as effect on serum CREA level at 15 to 30 mg/kg, ip administered every other day for 21 days; assay type: organism-based; conditions: in vivo, 504 h, dose 15-30 mg/kg, time 21 day

CN(C)S(=O)(=O)c1ccc(N2CCC(Cn3c(C(F)(F)F)nc4ccccc43)CC2)cc1
Activity [1]: inactive
inhibition [2]: Dose-Dependent Effect
Activity [3]: inactive
Activity [4]: Non-Toxic
inhibition in vivo at 15 mg/kg [5]: 47.6%
Activity [6]: Non-Toxic
Activity [7]: Non-Toxic
